# Reference: BindingDB's records for patent US11472811 (BEIGENE, LTD., 2022)
# Target: Adenosine receptor A2a (Homo sapiens, UniProt P29274)
# Assay: Luciferase Reporter Assay
# Method: HEK293-A2AR-luc2p/CRE/Hygro cells were seeded at a density of 5,000 cells/well in DMEM with 1% FBS and 1 U/mL adenosine deaminase (ADA) (Sigma). After 18 h, the cells were treated with 3 nM CGS21680 plus a series dilution of A2AR antagonist, the compounds disclosed herein at the concentration of 0.1 10000 nM, prepared in DMEM with 1% FBS. After 5 h incubation, the luciferase activity in cells were measured using the Bright-Glo Luciferase Assay System (Promega) according to manufacturer's instructions. The luminescence signal was measured using a PHERAstar FS plate reader (BMG Labtech). […] Maximal luminescence intensity was determined in the presence of 3 nM CGS21680 and was set as 100%. The IC50 value was calculated from a dose dependent inhibition curve across the range of compound concentrations.
# Chain of Adenosine receptor A2a (P29274 whole entry): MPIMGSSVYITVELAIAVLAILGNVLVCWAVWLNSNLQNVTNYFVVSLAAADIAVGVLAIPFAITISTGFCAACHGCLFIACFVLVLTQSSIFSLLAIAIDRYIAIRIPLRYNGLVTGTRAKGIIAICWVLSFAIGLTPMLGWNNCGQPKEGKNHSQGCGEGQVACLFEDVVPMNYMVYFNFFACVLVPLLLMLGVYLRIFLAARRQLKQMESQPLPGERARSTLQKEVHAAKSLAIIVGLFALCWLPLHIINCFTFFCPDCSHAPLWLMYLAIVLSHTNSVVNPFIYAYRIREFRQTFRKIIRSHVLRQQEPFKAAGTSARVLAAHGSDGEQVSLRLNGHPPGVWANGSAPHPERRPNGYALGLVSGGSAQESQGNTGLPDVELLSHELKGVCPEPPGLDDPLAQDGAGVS
structure (smiles),measurement,value
"C[C@@](C(=O)O)(c1ccccc1)n1ncc2c1nc(N)n1nc(-c3ccco3)nc21 [US11472811, Example Intermediate-Ia]",IC50,0.194 µM
